Measured values reported in US20140296216A1, “PYRIMIDO[4,5-D]PYRIMIDINYL COMPOUNDS, PHARMACEUTICAL COMPOSITIONS AND USES THEREOF” (GUANGZHOU INSTITUTE OF BIOMEDICINE AND HEALTH, CHINESE …, priority 2011, published 2014).
pIC50: −log10 of the molar value.

Experiments:
EGFRWT = EGFRWT (Homo sapiens, UniProt P00533); experiment: In vitro enzymatic activity assay (Z'-LYTE), wild type EGFR; assay type: biochemical; conditions: Z'-LYTE FRET peptide assay; read-out: EGFRWT kinase activity (IC50)
Excerpt: (§1) In vitro enzymatic activity assay: using Z′-LYTE™ technology (detect fluorescence, coupled-enzyme format, based on the differential sensitivity of phosphorylated and non-phosphorylated peptides to proteolytic cleavage), based on FRET, using Z′ LYTE™ FRET peptide substrate, detect the activity of compounds against enzymatic. […] After one hour, site specific protease which can recognize and cleaves non-phosphorylated FRET-peptide. After another hour, using an excitation wavelength of 400 nm excites, then detect the […] at 445 nm and 520 nm.

EGFRL858R + T790M = EGFRL858R + T790M (Homo sapiens, UniProt P00533, L858R/T790M); experiment: In vitro enzymatic activity assay (Z'-LYTE), EGFR L858R + T790M; assay type: biochemical; conditions: Z'-LYTE FRET peptide assay; read-out: EGFRL858R + T790M kinase activity (IC50)
Chain of EGFRL858R + T790M (P00533 25-1210 T790M/L858R): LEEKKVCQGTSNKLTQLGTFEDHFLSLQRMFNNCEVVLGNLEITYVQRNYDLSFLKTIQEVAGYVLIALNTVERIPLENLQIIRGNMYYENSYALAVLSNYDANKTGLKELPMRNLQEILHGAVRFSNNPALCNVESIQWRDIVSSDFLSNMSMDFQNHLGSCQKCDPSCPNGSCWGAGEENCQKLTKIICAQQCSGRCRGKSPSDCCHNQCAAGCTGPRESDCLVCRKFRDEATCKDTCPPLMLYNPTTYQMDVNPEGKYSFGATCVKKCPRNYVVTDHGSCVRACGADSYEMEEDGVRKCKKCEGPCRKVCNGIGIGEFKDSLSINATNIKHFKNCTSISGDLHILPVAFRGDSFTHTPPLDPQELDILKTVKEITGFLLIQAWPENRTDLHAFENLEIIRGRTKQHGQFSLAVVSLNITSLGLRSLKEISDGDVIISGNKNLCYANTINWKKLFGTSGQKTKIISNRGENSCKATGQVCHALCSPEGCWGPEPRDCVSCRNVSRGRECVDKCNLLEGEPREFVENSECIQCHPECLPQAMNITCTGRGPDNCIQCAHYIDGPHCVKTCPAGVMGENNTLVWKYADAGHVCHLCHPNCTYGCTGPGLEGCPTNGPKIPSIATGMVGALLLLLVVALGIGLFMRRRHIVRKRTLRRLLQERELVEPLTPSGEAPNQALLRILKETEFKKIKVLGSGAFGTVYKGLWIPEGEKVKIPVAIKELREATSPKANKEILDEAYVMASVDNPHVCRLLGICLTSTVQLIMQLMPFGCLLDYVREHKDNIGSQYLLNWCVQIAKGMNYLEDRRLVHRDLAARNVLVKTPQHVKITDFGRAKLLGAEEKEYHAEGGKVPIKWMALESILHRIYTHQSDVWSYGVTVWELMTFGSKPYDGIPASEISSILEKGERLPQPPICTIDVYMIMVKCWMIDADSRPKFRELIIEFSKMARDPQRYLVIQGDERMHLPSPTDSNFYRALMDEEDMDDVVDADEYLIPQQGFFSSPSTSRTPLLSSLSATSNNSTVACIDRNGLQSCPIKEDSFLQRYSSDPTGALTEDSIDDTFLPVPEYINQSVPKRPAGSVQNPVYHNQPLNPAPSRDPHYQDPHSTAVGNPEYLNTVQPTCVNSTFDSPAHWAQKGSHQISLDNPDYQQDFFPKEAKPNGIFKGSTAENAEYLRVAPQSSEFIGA
Excerpt: as §1

[1] = test system: H1975 (lung cancer cells, EGFR L858R&T790M); experiment: Cell proliferation by MTT, H1975; assay type: cell-based; conditions: Homo sapiens, NCI-H1975, read-out: H1975 50% inhibitory concentration (IC50), 72 h
EGFRL858R = EGFRL858R (Homo sapiens, UniProt P00533, L858R); experiment: In vitro enzymatic activity assay (Z'-LYTE), EGFR L858R; assay type: biochemical; conditions: Z'-LYTE FRET peptide assay; read-out: EGFRL858R kinase activity (IC50)
Chain of EGFRL858R (P00533 25-1210 L858R): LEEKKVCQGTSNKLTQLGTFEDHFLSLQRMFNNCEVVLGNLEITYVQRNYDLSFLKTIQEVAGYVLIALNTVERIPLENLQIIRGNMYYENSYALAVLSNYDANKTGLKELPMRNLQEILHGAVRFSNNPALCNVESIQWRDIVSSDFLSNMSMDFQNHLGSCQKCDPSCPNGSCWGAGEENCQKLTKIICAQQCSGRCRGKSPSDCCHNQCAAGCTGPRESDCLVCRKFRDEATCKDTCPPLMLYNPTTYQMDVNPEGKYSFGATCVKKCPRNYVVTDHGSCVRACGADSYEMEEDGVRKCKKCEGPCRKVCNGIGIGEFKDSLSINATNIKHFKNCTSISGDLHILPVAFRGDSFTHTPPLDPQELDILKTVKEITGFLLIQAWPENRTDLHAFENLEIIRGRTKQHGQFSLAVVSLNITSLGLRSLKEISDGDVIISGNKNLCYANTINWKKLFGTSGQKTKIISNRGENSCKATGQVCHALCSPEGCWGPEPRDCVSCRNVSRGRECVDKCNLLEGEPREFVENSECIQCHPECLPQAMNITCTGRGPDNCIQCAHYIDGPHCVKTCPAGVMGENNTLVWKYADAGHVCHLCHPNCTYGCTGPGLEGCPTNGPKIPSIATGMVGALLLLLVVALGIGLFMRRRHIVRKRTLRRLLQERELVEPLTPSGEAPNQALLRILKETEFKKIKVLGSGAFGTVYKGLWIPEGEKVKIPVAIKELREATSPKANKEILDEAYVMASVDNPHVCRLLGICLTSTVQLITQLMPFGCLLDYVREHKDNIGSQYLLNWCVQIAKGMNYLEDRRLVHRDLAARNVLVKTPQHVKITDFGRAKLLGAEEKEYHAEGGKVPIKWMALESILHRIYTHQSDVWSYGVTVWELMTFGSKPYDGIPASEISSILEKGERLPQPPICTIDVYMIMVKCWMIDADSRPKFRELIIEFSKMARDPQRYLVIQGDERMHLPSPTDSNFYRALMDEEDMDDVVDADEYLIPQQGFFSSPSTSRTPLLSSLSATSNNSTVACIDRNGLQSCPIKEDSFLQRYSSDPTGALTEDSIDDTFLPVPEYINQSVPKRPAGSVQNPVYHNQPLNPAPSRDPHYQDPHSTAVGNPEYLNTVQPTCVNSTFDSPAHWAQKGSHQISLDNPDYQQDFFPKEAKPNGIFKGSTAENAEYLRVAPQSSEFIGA
Excerpt: as §1

EGFRL861Q = EGFRL861Q (Homo sapiens, UniProt P00533, L861Q); experiment: In vitro enzymatic activity assay (Z'-LYTE), EGFR L861Q; assay type: biochemical; conditions: Z'-LYTE FRET peptide assay; read-out: EGFRL861Q kinase activity (IC50)
Chain of EGFRL861Q (P00533 25-1210 L861Q): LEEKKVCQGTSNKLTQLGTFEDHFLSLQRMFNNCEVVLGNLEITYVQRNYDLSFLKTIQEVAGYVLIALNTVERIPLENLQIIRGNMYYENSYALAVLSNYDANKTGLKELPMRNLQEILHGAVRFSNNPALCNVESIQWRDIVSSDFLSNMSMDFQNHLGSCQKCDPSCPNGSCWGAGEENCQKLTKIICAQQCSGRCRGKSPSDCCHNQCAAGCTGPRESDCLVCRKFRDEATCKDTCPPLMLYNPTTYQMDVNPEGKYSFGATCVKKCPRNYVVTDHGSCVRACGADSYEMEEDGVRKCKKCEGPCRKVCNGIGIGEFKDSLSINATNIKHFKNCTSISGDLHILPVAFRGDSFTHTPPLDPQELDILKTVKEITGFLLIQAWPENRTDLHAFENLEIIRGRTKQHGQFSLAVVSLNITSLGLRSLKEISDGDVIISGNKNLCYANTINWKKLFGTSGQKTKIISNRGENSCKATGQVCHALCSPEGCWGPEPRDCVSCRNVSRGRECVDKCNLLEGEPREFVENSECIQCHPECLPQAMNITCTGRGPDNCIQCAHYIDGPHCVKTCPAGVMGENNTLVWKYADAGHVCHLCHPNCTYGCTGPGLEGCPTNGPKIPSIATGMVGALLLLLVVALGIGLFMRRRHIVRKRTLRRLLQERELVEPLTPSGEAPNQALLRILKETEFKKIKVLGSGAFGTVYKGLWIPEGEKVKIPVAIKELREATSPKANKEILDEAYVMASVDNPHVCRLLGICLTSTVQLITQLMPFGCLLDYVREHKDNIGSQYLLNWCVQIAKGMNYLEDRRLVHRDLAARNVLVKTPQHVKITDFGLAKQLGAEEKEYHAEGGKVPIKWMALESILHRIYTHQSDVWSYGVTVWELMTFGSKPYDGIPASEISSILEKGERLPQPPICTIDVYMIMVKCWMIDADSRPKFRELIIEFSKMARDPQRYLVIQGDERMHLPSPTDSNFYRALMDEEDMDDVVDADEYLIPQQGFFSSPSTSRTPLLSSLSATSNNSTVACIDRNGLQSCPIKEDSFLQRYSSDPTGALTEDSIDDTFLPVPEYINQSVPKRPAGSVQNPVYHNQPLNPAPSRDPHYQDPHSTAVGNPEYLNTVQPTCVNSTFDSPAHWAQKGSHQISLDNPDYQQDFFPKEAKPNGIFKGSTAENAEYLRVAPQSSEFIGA
Excerpt: as §1

EGFR T790M kinase = target: T1, EGFR T790M kinase (Homo sapiens, UniProt P00533, T790M); experiment: In vitro enzymatic activity assay (Z'-LYTE), EGFR T790M; assay type: biochemical; conditions: Z'-LYTE FRET peptide assay; read-out: EGFRT790M kinase activity (IC50)
T1 construct: purchased invitrogen PV4803
T1 sequence (P00533 25-1210 T790M): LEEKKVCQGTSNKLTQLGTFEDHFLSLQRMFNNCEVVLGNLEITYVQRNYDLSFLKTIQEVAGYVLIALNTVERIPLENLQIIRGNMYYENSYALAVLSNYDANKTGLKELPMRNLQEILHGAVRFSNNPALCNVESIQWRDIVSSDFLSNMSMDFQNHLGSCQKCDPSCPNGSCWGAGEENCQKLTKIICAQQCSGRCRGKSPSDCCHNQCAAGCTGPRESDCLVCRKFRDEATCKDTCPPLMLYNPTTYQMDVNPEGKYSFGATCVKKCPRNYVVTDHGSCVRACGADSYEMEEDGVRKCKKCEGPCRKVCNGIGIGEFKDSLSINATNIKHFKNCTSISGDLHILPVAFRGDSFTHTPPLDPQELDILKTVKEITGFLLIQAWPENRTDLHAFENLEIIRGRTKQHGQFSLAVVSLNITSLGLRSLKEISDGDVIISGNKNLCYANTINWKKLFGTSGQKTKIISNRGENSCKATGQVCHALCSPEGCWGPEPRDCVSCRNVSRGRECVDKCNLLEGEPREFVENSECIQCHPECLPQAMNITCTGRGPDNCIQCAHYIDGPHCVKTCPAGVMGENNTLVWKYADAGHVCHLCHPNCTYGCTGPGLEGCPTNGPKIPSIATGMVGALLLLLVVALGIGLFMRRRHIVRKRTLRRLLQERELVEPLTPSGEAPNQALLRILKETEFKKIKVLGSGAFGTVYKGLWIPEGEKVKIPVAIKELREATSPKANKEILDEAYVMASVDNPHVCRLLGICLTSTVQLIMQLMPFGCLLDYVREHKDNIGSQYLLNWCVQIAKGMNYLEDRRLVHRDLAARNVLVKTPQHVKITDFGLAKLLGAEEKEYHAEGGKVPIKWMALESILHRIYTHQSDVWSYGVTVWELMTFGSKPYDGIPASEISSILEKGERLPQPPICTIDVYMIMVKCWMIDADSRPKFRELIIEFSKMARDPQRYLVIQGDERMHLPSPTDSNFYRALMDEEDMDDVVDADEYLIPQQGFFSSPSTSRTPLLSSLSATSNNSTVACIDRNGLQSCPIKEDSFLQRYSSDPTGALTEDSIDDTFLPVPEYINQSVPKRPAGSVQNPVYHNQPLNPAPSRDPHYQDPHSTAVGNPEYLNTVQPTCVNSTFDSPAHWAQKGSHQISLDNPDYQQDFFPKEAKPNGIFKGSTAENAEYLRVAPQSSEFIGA
Excerpt: as §1

[2] = test system: HCC827 (lung cancer cells, EGFR E746-A750 deletion); experiment: Cell proliferation by MTT, HCC827; assay type: cell-based; conditions: Homo sapiens, HCC827, read-out: HCC827 50% inhibitory concentration (IC50), 72 h
[3] = test system: A431 (Human epidermal carcinoma, EGFR high expression); experiment: Cell proliferation by MTT, A431; assay type: cell-based; conditions: A-431, read-out: A431 50% inhibitory concentration (IC50), 72 h

SMILES | pIC50 (EGFRWT) | pIC50 (EGFRL858R + T790M) | pIC50 [1] | pIC50 (EGFRL858R) | pIC50 (EGFRL861Q) | pIC50 (EGFR T790M kinase) | pIC50 [2] | pIC50 [3]
C=CC(=O)Nc1cccc(N2C(=O)N(C)Cc3cnc(Nc4ccc(N5CC[C@@H](N(C)C)C5)cc4OC)nc32)c1 [C-EGF15, (R)—N-(3-(7-(4-(3-(dimethylamino)pyrrolidin-1-yl)-2-methoxyphenylamino)-3-methyl-2-oxo-3,4-dihydropyrimido[4,5-d]pyrimidin-1(2H)-yl)phenyl)acrylamide] | 7.00 to 8.00 | ≥ 8.00 | 6.35 | ≥ 8.00 | ≥ 8.00 | 7.00 to 8.00 | – | –
C=CC(=O)Nc1cccc(N2C(=O)N(C)Cc3cnc(Nc4ccc(N5CC[C@H](N(C)C)C5)cc4OC)nc32)c1 [C-EGF16, (S)—N-(3-(7-(4-(3-(dimethylamino)pyrrolidin-1-yl)-2-methoxyphenylamino)-3-methyl-2-oxo-3,4-dihydropyrimido[4,5-d]pyrimidin-1(2H)-yl)phenyl)acrylamide] | ≥ 8.00 | ≥ 8.00 | 6.42 | ≥ 8.00 | ≥ 8.00 | 7.00 to 8.00 | – | –
C=CC(=O)Nc1cccc(N2C(=O)N(C)Cc3cnc(Nc4ccc(N5CCN(C(C)=O)CC5)cc4OC)nc32)c1 [C-EGF20, N-(3-(7-(4-(4-acetylpiperazin-1-yl)-2-methoxyphenylamino)-3-methyl-2-oxo-3,4-dihydropyrimido[4,5-d]pyrimidin-1(2H)-yl)phenyl)acrylamide] | ≥ 8.00 | ≥ 8.00 | 6.84 | ≥ 8.00 | ≥ 8.00 | ≥ 8.00 | – | –
C=CC(=O)Nc1cccc(N2C(=O)N(c3ccc(OCc4ccccc4)cc3)Cc3cnc(Nc4ccc(N5CCN(C)CC5)cc4OC)nc32)c1 [C-EGF32, N-(3-(3-(4-(benzyloxy)phenyl)-7-(2-methoxy-4-(4-methylpiperazin-1-yl)phenylamino)-2-oxo-3,4-dihydropyrimido[4,5-d]pyrimidin-1(2H)-yl)phenyl)acrylamide] | ≥ 8.00 | ≥ 8.00 | – | ≥ 8.00 | ≥ 8.00 | ≥ 8.00 | – | –
CCC(=O)Nc1cccc(N2C(=O)N(C)Cc3cnc(Nc4ccc(N5CCN(C)CC5)cc4OC)nc32)c1 [C-EGF34, N-(3-(7-(2-methoxy-4-(4-methylpiperazin-1-yl)phenylamino)-3-methyl-2-oxo-3,4-dihydropyrimido[4,5-d]pyrimidin-1(2H)-yl)phenyl)propionamide] | 5.00 to 6.00 | 5.00 to 6.00 | < 4.70 | 5.00 to 6.00 | 5.00 to 6.00 | 5.00 to 6.00 | – | < 4.52
C=CC(=O)Nc1cccc(N2C(=O)N(c3ccc(F)c(Cl)c3)Cc3cnc(Nc4ccc(N5CCN(C)CC5)cc4OC)nc32)c1 [C-EGF38, N-(3-(3-(3-chloro-4-fluorophenyl)-7-(2-methoxy-4-(4-methylpiperazin-1-yl)phenylamino)-2-oxo-3,4-dihydropyrimido[4,5-d]pyrimidin-1(2H)-yl)phenyl)acrylamide] | ≥ 8.00 | ≥ 8.00 | – | ≥ 8.00 | ≥ 8.00 | ≥ 8.00 | – | –
C=CS(=O)(=O)Nc1cccc(N2C(=O)N(C)Cc3cnc(Nc4ccc(N5CCN(C)CC5)cc4OC)nc32)c1 [C-EGF40, N-(3-(7-(2-methoxy-4-(4-methylpiperazin-1-yl)phenylamino)-3-methyl-2-oxo-3,4-dihydropyrimido[4,5-d]pyrimidin-1(2H)-yl)phenyl)ethenesulfonamide] | ≥ 8.00 | 7.00 to 8.00 | – | ≥ 8.00 | ≥ 8.00 | 7.00 to 8.00 | – | –
C=CC(=O)Nc1ccc(F)c(N2C(=O)N(Cc3ccccc3)Cc3cnc(Nc4ccc(N5CCN(C)CC5)cc4OC)nc32)c1 [C-EGF41, N-(3-(3-benzyl-7-(2-methoxy-4-(4-methylpiperazin-1-yl)phenylamino)-2-oxo-3,4-dihydropyrimido[4,5-d]pyrimidin-1(2H)-yl)-4-fluorophenyl)acrylamide] | ≥ 8.00 | ≥ 8.00 | – | ≥ 8.00 | ≥ 8.00 | ≥ 8.00 | – | –

The next lines start with the values.

pIC50 (EGFRWT) | pIC50 (EGFRL858R + T790M) | pIC50 [1] | pIC50 (EGFRL858R) | pIC50 (EGFRL861Q) | pIC50 (EGFR T790M kinase) | pIC50 [2] | pIC50 [3] | SMILES
≥ 8.00 | ≥ 8.00 | – | ≥ 8.00 | ≥ 8.00 | ≥ 8.00 | – | – | C=CC(=O)Nc1cccc(N2C(=O)N(c3ccccc3)Cc3cnc(Nc4ccc(N5CCN(C)CC5)cc4OC)nc32)c1 [C-EGF27, N-(3-(7-(2-methoxy-4-(4-methylpiperazin-1-yl)phenylamino)-2-oxo-3-phenyl-3,4-dihydropyrimido[4,5-d]pyrimidin-1(2H)-yl)phenyl)acrylamide]
≥ 8.00 | ≥ 8.00 | 7.52 | ≥ 8.00 | ≥ 8.00 | ≥ 8.00 | 8.22 | – | C=CC(=O)Nc1cccc(N2C(=O)N(c3cccc4ccccc34)Cc3cnc(Nc4ccc(N5CCN(C)CC5)cc4OC)nc32)c1 [C-EGF28, N-(3-(7-(2-methoxy-4-(4-methylpiperazin-1-yl)phenylamino)-3-(naphthalen-1-yl)-2-oxo-3,4-dihydropyrimido[4,5-d]pyrimidin-1(2H)-yl)phenyl)acrylamide]
≥ 8.00 | ≥ 8.00 | – | ≥ 8.00 | ≥ 8.00 | ≥ 8.00 | – | – | C=CC(=O)Nc1cccc(N2C(=O)N(Cc3ccccc3)Cc3cnc(Nc4ccc(N5CCN(C)CC5)cc4OC)nc32)c1 [C-EGF29, N-(3-(3-benzyl-7-(2-methoxy-4-(4-methylpiperazin-1-yl)phenylamino)-2-oxo-3,4-dihydropyrimido[4,5-d]pyrimidin-1(2H)-yl)phenyl)acrylamide]
≥ 8.00 | ≥ 8.00 | – | ≥ 8.00 | ≥ 8.00 | ≥ 8.00 | – | – | C=CC(=O)Nc1cccc(N2C(=O)N(c3ccc(-c4ccccc4)cc3)Cc3cnc(Nc4ccc(N5CCN(C)CC5)cc4OC)nc32)c1 [C-EGF30, N-(3-(3-(biphenyl-4-yl)-7-(2-methoxy-4-(4-methylpiperazin-1-yl)phenylamino)-2-oxo-3,4-dihydropyrimido[4,5-d]pyrimidin-1(2H)-yl)phenyl)acrylamide]
≥ 8.00 | ≥ 8.00 | – | ≥ 8.00 | ≥ 8.00 | ≥ 8.00 | – | – | C=CC(=O)Nc1cccc(N2C(=O)N(c3ccc(Oc4ccccc4)cc3)Cc3cnc(Nc4ccc(N5CCN(C)CC5)cc4OC)nc32)c1 [C-EGF31, N-(3-(7-(2-methoxy-4-(4-methylpiperazin-1-yl)phenylamino)-2-oxo-3-(4-phenoxyphenyl)-3,4-dihydropyrimido[4,5-d]pyrimidin-1(2H)-yl)phenyl)acrylamide]
≥ 8.00 | ≥ 8.00 | – | ≥ 8.00 | ≥ 8.00 | ≥ 8.00 | – | – | C=CC(=O)Nc1cccc(N2C(=O)N(c3cccc(Cl)c3)Cc3cnc(Nc4ccc(N5CCN(C)CC5)cc4OC)nc32)c1 [C-EGF35, N-(3-(3-(3-chlorophenyl)-7-(2-methoxy-4-(4-methylpiperazin-1-yl)phenylamino)-2-oxo-3,4-dihydropyrimido[4,5-d]pyrimidin-1(2H)-yl)phenyl)acrylamide]
≥ 8.00 | ≥ 8.00 | – | ≥ 8.00 | ≥ 8.00 | ≥ 8.00 | – | – | C=CC(=O)Nc1cccc(N2C(=O)N(c3cccc(C#N)c3)Cc3cnc(Nc4ccc(N5CCN(C)CC5)cc4OC)nc32)c1 [C-EGF36, N-(3-(3-(3-cyanophenyl)-7-(2-methoxy-4-(4-methylpiperazin-1-yl)phenylamino)-2-oxo-3,4-dihydropyrimido[4,5-d]pyrimidin-1(2H)-yl)phenyl)acrylamide]
≥ 8.00 | 7.00 to 8.00 | – | ≥ 8.00 | ≥ 8.00 | 7.00 to 8.00 | – | – | C=CC(=O)Nc1cccc(N2C(=O)N(c3cccc([N+](=O)[O-])c3)Cc3cnc(Nc4ccc(N5CCN(C)CC5)cc4OC)nc32)c1 [C-EGF37, N-(3-(7-(2-methoxy-4-(4-methylpiperazin-1-yl)phenylamino)-3-(3-nitrophenyl)-2-oxo-3,4-dihydropyrimido[4,5-d]pyrimidin-1(2H)-yl)phenyl)acrylamide]
≥ 8.00 | ≥ 8.00 | – | ≥ 8.00 | ≥ 8.00 | ≥ 8.00 | – | – | C=CC(=O)Nc1cccc(N2C(=O)N(c3ccccc3C)Cc3cnc(Nc4ccc(N5CCN(C)CC5)cc4OC)nc32)c1 [C-EGF39, N-(3-(7-(2-methoxy-4-(4-methylpiperazin-1-yl)phenylamino)-2-oxo-3-o-tolyl-3,4-dihydropyrimido[4,5-d]pyrimidin-1(2H)-yl)phenyl)acrylamide]
